ChEMBL document CHEMBL5150076, “Discovery of Novel Orally Bioavailable Triazoles with Potent and Broad-Spectrum Antifungal Activity In Vitro and In Vivo” (J Med Chem, 2022)
Values after ≈ are worked out from the molar mass of the structure shown. Active and inactive are the calls of the source. The rule behind the calls is not given here.

Legend:
[1] = target: T1, Lanosterol 14-alpha demethylase (Candida albicans (strain SC5314 / ATCC MYA-2876) (Yeast), UniProt P10613); test: Inhibition of CYP51 in Candida albicans SC5314 assessed as sterol level at 4 ug/ml measured after 12 hrs by GC-MS analysis (reference value: 25.23%); parameters: scale not given: the % may be the effect or the level left; details: at 4 µg/mL
Candida tropicalis [2] = test: Antifungal activity against Candida tropicalis ATCC750; assay type: functional
Pichia kudriavzevii [3] = test: Antifungal activity against Candida krusei 629; assay type: functional
[4] = Induction of drug resistance in Candida albicans SC5314 assessed as increase in MIC after 26 days; assay type: functional; details: SC5314, 624 h, time 26 day
[5] = target: T1, Lanosterol 14-alpha demethylase; test: Inhibition of CYP51 in Candida albicans SC5314 assessed as eburicol level at 4 ug/ml measured after 12 hrs by GC-MS analysis (reference value: 0.00%); parameters: scale not given: the % may be the effect or the level left; details: at 4 µg/mL
Candida albicans [6] = test: Antifungal activity against Candida albicans 305; assay type: functional
[Candida] auris [7] = Antifungal activity against Candida auris D12; assay type: functional; details: Candidozyma auris
Candida albicans [8] = test: Antifungal activity against Candida albicans 25#; assay type: functional
Cryptococcus neoformans [9] = test: Antifungal activity against Cryptococcus neoformans H99 infected in ICR mouse assessed as delay in mortality at 2 mg/kg, po qd infected with fungus for 2 hrs prior to compound addition for 7 days and measured for 20 days; assay type: functional, organism-based; details: time 20.0 day
Cryptococcus neoformans [10] = test: Antifungal activity against Cryptococcus neoformans 32605; assay type: functional
[11] = target: T1, Lanosterol 14-alpha demethylase; test: Inhibition of CYP51 in Candida albicans SC5314 assessed as lanosterol level at 4 ug/ml measured after 12 hrs by GC-MS analysis (reference value: 2.18%); parameters: scale not given: the % may be the effect or the level left; details: at 4 µg/mL
[12] = target: T1, Lanosterol 14-alpha demethylase; test: Inhibition of CYP51 in Candida albicans SC5314 assessed as sterol level at 0.5 ug/ml measured after 12 hrs by GC-MS analysis (reference value: 25.23%); parameters: scale not given: the % may be the effect or the level left; details: at 0.5 µg/mL
[13] = Cytotoxicity against HUVEC assessed as cell viability at 64 ug/ml incubated for 24 hrs by CCK-8 assay; assay type: toxicity, cell-based; details: human, HUVEC cells, at 64 µg/mL, read-out: Activity
[14] = Induction of drug resistance in Candida albicans SC5314 assessed as increase in MIC after 2 weeks (reference value: 0.5 microg/ml); assay type: functional; details: SC5314, 336 h
[Candida] auris [15] = Antifungal activity against Candida auris BS12372; assay type: functional; details: Candidozyma auris
in vitro = details: human, Caco-2 cells; at 64 µg/mL
Candida albicans [16] = test: Antifungal activity against Candida albicans SC5314 infected in ICR mouse assessed as delay in mortality at 0.5 mg/kg, po qd infected with fungus for 2 hrs prior to compound addition for 7 days and measured for 20 days; assay type: functional, organism-based; details: time 20.0 day
Candida albicans [17] = test: Antifungal activity against Candida albicans 100 infected in ICR mouse assessed as median survival time at 0.25 mg/kg, po qd infected with fungus for 2 hrs prior to compound addition for 7 days and measured for 20 days; assay type: functional; details: time 20 day
Candida albicans [18] = test: Antifungal activity against Candida albicans 162; assay type: functional
Candida albicans [19] = test: Antifungal activity against Candida albicans 14#; assay type: functional
Nannizzia gypsea = test: Antifungal activity against Microsporum gypseum; assay type: functional
Candida tropicalis [20] = test: Antifungal activity against Candida tropicalis 112936; assay type: functional
[21] = target: T1, Lanosterol 14-alpha demethylase; test: Inhibition of CYP51 in Candida albicans SC5314 assessed as eburicol level at 0.5 ug/ml measured after 12 hrs by GC-MS analysis (reference value: 0.00%); parameters: scale not given: the % may be the effect or the level left; details: at 0.5 µg/mL
Aspergillus fumigatus = test: Antifungal activity against Aspergillus fumigatus 7544 incubated for 48 hrs by microbroth dilution method; assay type: functional
Candida albicans [22] = test: Antifungal activity against Candida albicans Y0109; assay type: functional
Candida parapsilosis [23] = test: Antifungal activity against Candida parapsilosis 700; assay type: functional; details: Lodderomyces parapsilosis
Candida albicans [24] = test: Antifungal activity against Candida albicans 100 infected in ICR mouse assessed as delay in mortality at 0.25 mg/kg, po qd infected with fungus for 2 hrs prior to compound addition for 7 days and measured for 20 days; assay type: functional, organism-based; details: time 20.0 day
Candida albicans [25] = test: Antifungal activity against Candida albicans 20#; assay type: functional
Pichia kudriavzevii [26] = test: Antifungal activity against Candida krusei 463; assay type: functional
Nakaseomyces glabratus [27] = test: Antifungal activity against Candida glabrata 537; assay type: functional
Candida albicans [28] = test: Antifungal activity against Candida albicans SC5314 incubated for 24 hrs by microbroth dilution method; assay type: functional
Candida albicans [29] = test: Antifungal activity against Candida albicans 28#; assay type: functional
Trichophyton rubrum = test: Antifungal activity against Trichophyton rubrum cmccftla; assay type: functional
Candida albicans [30] = test: Antifungal activity against Candida albicans 12#; assay type: functional
Pichia kudriavzevii [31] = test: Antifungal activity against Candida krusei 397; assay type: functional
Nakaseomyces glabratus [32] = test: Antifungal activity against Candida glabrata ATCC2001; assay type: functional
Pichia kudriavzevii [33] = test: Antifungal activity against Candida krusei 467; assay type: functional
[Candida] auris [34] = Antifungal activity against Candida auris 887; assay type: functional; details: Candidozyma auris
Candida parapsilosis [35] = test: Antifungal activity against Candida parapsilosis 90018; assay type: functional; details: Lodderomyces parapsilosis
Candida albicans [36] = test: Antifungal activity against Candida albicans SC5314 infected in ICR mouse assessed as median survival time at 0.5 mg/kg, po qd infected with fungus for 2 hrs prior to compound addition for 7 days and measured for 20 days; assay type: functional; details: time 20 day
Cryptococcus neoformans [37] = test: Antifungal activity against Cryptococcus neoformans H99 incubated for 72 hrs by microbroth dilution method; assay type: functional
Candida parapsilosis [38] = test: Antifungal activity against Candida parapsilosis 22019; assay type: functional; details: Lodderomyces parapsilosis
Cryptococcus neoformans [39] = test: Antifungal activity against Cryptococcus neoformans H99 infected in ICR mouse assessed as median survival time at 2 mg/kg, po qd infected with fungus for 2 hrs prior to compound addition for 7 days and measured for 20 days; assay type: functional; details: time 20 day
[40] = Induction of hemolysis in rabbit RBC at 64 ug/ml incubated for 1 hr; assay type: toxicity, cell-based, Oryctolagus cuniculus, Erythrocyte; details: red blood cells, at 64 µg/mL, read-out: Activity
[41] = target: T1, Lanosterol 14-alpha demethylase; test: Inhibition of CYP51 in Candida albicans SC5314 assessed as ergosterol level at 4 ug/ml measured after 12 hrs by GC-MS analysis (reference value: 72.58%); parameters: scale not given: the % may be the effect or the level left; details: at 4 µg/mL
[42] = target: T1, Lanosterol 14-alpha demethylase; test: Inhibition of CYP51 in Candida albicans SC5314 assessed as lanosterol level at 0.5 ug/ml measured after 12 hrs by GC-MS analysis (reference value: 2.18%); parameters: scale not given: the % may be the effect or the level left; details: at 0.5 µg/mL
Candida parapsilosis [43] = test: Antifungal activity against Candida parapsilosis 660; assay type: functional; details: Lodderomyces parapsilosis
[Candida] auris [44] = Antifungal activity against Candida auris 791; assay type: functional; details: Candidozyma auris

T1 sequence (P10613 whole entry): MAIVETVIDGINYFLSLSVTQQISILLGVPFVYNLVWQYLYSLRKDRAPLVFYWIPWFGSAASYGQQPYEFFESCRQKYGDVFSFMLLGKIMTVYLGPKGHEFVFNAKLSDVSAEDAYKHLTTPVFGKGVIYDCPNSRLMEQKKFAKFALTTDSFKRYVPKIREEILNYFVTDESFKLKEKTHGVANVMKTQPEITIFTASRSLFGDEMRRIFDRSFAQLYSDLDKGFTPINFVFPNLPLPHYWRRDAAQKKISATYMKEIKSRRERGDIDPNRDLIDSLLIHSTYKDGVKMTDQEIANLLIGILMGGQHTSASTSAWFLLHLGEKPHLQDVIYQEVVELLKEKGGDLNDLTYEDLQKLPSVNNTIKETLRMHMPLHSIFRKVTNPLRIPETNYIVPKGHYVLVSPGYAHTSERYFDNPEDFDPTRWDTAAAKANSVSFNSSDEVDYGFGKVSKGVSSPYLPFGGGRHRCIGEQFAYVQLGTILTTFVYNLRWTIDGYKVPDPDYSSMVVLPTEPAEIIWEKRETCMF

SMILES: OC(Cn1cncn1)(Cn1cncn1)c1ccc(F)cc1F [FLUCONAZOLE]
- Activity [1]: 5.77%
- MIC (Candida tropicalis [2]): > 64 µg/mL
- MIC (Pichia kudriavzevii [3]): 4 µg/mL (≈ 13.1 µM)
- MIC [4]: 16 µg/mL
- Activity [5]: 87.88%
- MIC (Candida albicans [6]): > 64 µg/mL
- MIC ([Candida] auris [7]): > 64 µg/mL
- MIC (Candida albicans [8]): > 64 µg/mL
- Activity (Cryptococcus neoformans [9]): Active
- MIC (Cryptococcus neoformans [10]): 0.5 µg/mL (≈ 1.63 µM)
- Activity [11]: 5.73%
- Activity [12]: 4.69%
- viability at 24 h, 64 ug/ml [13]: 88.4%
- MIC [14]: 4 µg/mL
- MIC ([Candida] auris [15]): > 64 µg/mL
- viability at 24 h, 64 ug/ml (in vitro): 101%
- Activity (Candida albicans [16]): Active
- Time (Candida albicans [17]): 8.5 days
- MIC (Candida albicans [18]): > 64 µg/mL
- MIC (Candida albicans [19]): > 64 µg/mL
- MIC (Nannizzia gypsea): 32 µg/mL (≈ 104 µM)
- MIC (Candida tropicalis [20]): > 64 µg/mL
- Activity [21]: 2.61%
- MIC (Aspergillus fumigatus): > 64 µg/mL
- MIC (Candida albicans [22]): 0.25 µg/mL (≈ 0.816 µM)
- MIC (Candida parapsilosis [23]): 2 µg/mL (≈ 6.53 µM)
- Activity (Candida albicans [24]): Active
- MIC (Candida albicans [25]): 0.5 µg/mL (≈ 1.63 µM)
- MIC (Pichia kudriavzevii [26]): 4 µg/mL (≈ 13.1 µM)
- MIC (Nakaseomyces glabratus [27]): 2 µg/mL (≈ 6.53 µM)
- MIC (Candida albicans [28]): 0.5 µg/mL (≈ 1.63 µM)
- MIC (Candida albicans [29]): 2 µg/mL (≈ 6.53 µM)
- MIC (Trichophyton rubrum): 8 µg/mL (≈ 26.1 µM)
- MIC (Candida albicans [30]): > 64 µg/mL
- MIC (Pichia kudriavzevii [31]): 2 µg/mL (≈ 6.53 µM)
- MIC (Nakaseomyces glabratus [32]): 2 µg/mL (≈ 6.53 µM)
- MIC (Pichia kudriavzevii [33]): 4 µg/mL (≈ 13.1 µM)
- MIC ([Candida] auris [34]): > 64 µg/mL
- MIC (Candida parapsilosis [35]): 0.5 µg/mL (≈ 1.63 µM)
- Time (Candida albicans [36]): 14 days
- MIC (Cryptococcus neoformans [37]): 0.5 µg/mL (≈ 1.63 µM)
- MIC (Candida parapsilosis [38]): 2 µg/mL (≈ 6.53 µM)
- Time (Cryptococcus neoformans [39]): 8.5 days
- hemolysis at 1 h, 64 ug/ml [40]: 1.01%
- Activity [41]: 0.62%
- Activity [42]: 18.14%
- MIC (Candida parapsilosis [43]): 0.5 µg/mL (≈ 1.63 µM)
- MIC ([Candida] auris [44]): > 64 µg/mL
